The source of these data is publication PMC6017322, “Triterpene Acids from Frankincense and Semi-Synthetic Derivatives That Inhibit 5-Lipoxygenase and Cathepsin G” (Molecules : A Journal of Synthetic Chemistry and Natural …, 2018).

Molecules are shown by their SMILES.

For orientation: IC50 means the concentration that inhibits the measured activity by half. A word on the inhibition: it is how much of the control response was suppressed.

In experiment [1] the target is T1, 5-LO (Homo sapiens, UniProt P09917).
T1 sequence (P09917 1-674): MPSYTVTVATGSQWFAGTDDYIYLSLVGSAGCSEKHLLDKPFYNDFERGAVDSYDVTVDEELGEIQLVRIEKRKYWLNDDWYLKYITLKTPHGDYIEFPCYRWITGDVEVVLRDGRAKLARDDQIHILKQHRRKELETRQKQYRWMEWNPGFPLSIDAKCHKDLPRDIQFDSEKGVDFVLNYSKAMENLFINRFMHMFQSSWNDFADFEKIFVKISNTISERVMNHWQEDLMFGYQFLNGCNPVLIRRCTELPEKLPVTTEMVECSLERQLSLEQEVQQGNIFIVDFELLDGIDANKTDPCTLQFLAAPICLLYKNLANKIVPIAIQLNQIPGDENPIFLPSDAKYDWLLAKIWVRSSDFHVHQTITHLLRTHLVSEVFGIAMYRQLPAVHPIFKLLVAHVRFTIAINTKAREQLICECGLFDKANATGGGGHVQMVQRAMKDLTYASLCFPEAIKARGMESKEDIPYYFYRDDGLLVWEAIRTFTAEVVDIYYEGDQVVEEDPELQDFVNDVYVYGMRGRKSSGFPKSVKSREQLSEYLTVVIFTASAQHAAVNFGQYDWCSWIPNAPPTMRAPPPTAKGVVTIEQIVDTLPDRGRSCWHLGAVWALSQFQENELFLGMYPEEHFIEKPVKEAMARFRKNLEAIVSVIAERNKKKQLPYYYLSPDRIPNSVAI
The experiment can be described thus: 5-LO product formation in intact human neutrophils stimulated with A23187 (cell-based). More on the design: 5-LO product formation in intact human neutrophils; endogenous in cells; host or cells: freshly isolated human peripheral blood neutrophils. The settings on record: for IC50: human neutrophils stimulated with A23187; for remaining activity at 10 µM: residual activity at 10 µM, A23187, mean ± SEM, 3–4 experiments, read-out: 5-LO Activity [% Control] cell-based. As to the method:
Neutrophils were isolated from peripheral blood (University Hospital Tübingen, Germany), collected from fasted healthy adult donors that were informed about the aim of the study and gave written consent. Leukocyte concentrates were obtained by centrifugation (4000× g, 20 min, 20 °C) of heparinized blood preparation, and neutrophils were immediately isolated as described before. Briefly, leukocyte concentrates were subjected to dextran sedimentation and centrifuged on lymphocyte separation medium (LSM 1077, PAA, Coelbe, Germany). For isolation of pelleted neutrophils, remaining erythrocytes were removed by hypotonic lysis, washed twice with ice-cold phosphate-buffered saline (PBS) and finally resuspended in PBS buffer containing 0.1% glucose and CaCl2 (1 mM) (PGC buffer).
5-LO product formation in intact human neutrophils was performed using 5 × 10^6 freshly isolated cells that were resuspended in 1 mL PGC buffer. Cells were pre-incubated with the test compounds or vehicle (0.1% DMSO) at 37 °C for 15 min prior to stimulation with 2.5 µM Ca^2+-ionophore A23187 for 10 min (37 °C). 5-LO product formation was stopped by addition of one volume of ice-cold methanol, samples were subjected to solid phase extraction after addition of 200 ng PGB1 as internal standard, and 5-LO products (LTB4, its trans-isomers and 5-HETE) were analyzed by RP-HPLC as described above.

Experiment [2] concerns the target T1, 5-LO. Put plainly: 5-LO activity in a cell-free assay (isolated human recombinant 5-LO, 20 µM arachidonic acid). Type of experiment: biochemical. Set-up: made in house; host or cells: Escherichia coli BL21 (pT3-5-LO plasmid). The settings on record: for remaining activity at 10 µM / 5-LO Activity [% Control] cell-free: residual activity at 10 µM, isolated 5-LO, 20 µM arachidonic acid, mean ± SEM, 3–4 experiments; for remaining activity at 10 µM: read-out: 5-LO Activity [% Control] cell-free. As to the method:
Human recombinant 5-LO was expressed in Eschericha coli BL21 transformed with pT3-5-LO plasmid at 30 °C overnight, as described elsewhere. Cells were lysed in lysis buffer containing triethanolamine (50 mM, pH 8.0), EDTA (5 mM), phenylmethanesulfonyl fluoride (1 mM), soybean trypsin inhibitor (60 µg/mL), dithiothreitol (2 mM), and lysozyme (1 mg/mL), and homogenized by sonification (3 × 15 s). 5-LO was then purified from 40,000× g supernatant (20 min, 4 °C) using an ATP-agarose column (Sigma-Aldrich, Deisenhofen, Germany), diluted with PBS buffer containing 1 mM EDTA, and immediately used for 5-LO activity assays.
To determine 5-LO activity, aliquots of purified 5-LO (0.5 µg 5-LO in 1 mL PBS plus 1 mM EDTA) were pre-incubated with the test compounds or vehicle (0.1% dimethyl sulfoxide, DMSO) on ice for 15 min, pre-warmed for 30 s at 37 °C in a water bath, and then stimulated with 20 µM AA and CaCl2 2 mM for 10 min at 37 °C. The reaction was stopped with one volume of ice-cold methanol and 5-LO products (including all-trans-isomers of LTB4 and 5-hydroperoxyeicosatetraenoic acid (5-HpETE), as well as its corresponding alcohol 5-hydroxyeicosatetraenoic acid (5-HETE)) were analyzed by reversed phase (RP)-HPLC (Elite LaChrom, VWR, Radnor, PA, USA) as previously described. In brief, acidified PBS and 200 ng of internal PGB1 standard were added and solid phase extraction using C18 RP-columns (100 mg, UCT, Bristol, PA, USA) was performed. After elution with methanol, samples were analyzed by RP-HPLC using a C-18 Radial-PAK column (Waters, Eschborn, Germany).

Another experiment concerns the target T2, cathepsin G (Homo sapiens, UniProt P08311).
T2 construct: purified cathepsin G (0.2 µg) from human neutrophils; purchased Calbiochem; host or cells: human neutrophils (natural source)
T2 sequence (P08311 21-244 limits assumed): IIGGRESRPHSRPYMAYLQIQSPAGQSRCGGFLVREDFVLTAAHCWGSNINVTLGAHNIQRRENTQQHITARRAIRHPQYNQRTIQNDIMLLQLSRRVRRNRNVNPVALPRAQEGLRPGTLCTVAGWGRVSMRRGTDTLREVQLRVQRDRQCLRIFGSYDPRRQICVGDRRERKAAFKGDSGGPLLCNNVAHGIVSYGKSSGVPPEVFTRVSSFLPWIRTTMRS
The experiment can be described thus: Cathepsin G activity in a cell-free assay (Suc-AAPF-pNA substrate). The note with it: for remaining activity at 10 µM / Cat. G Activity [% Control]: residual activity at 10 µM, mean ± SEM, 3–4 experiments; for remaining activity at 10 µM / IC50 / Cat. G Activity [% Control]: cell-free; for remaining activity at 10 µM: read-out: Cat. G Activity [% Control]; for inhibition at 10 µM / inhibition of cathepsin G: at 10 µM; for IC50: purified cathepsin G from human neutrophils, read-out: Cat. G IC50 (converted). It counts as biochemical. As to the method: Commercially available purified cathepsin G (0.2 µg) from human neutrophils (Calbiochem, La Jolla, CA, USA) was mixed with test compounds or DMSO (vehicle control) in 200 µL 0.1 M HEPES pH 7.4, 0.5 M NaCl, and 10% DMSO in a 96-well plate (Greiner Bio-One, Frickenhausen, Germany) and pre-incubated for 20 min at 25 °C. Then, N-Suc–Ala–Ala–Pro–Phe–pNA (Suc–AAPF–pNA) (1 mM) as substrate for cathespin G was added, and the absorbance was measured at 410 nm at 25 °C using a Victor^2 plate reader (PerkinElmer, Waltham, MA, USA).

As for `CC(C)=CCC[C@H](C(=O)O)[C@@H]1CC[C@]2(C)C3=CC[C@H]4C(C)(C)[C@H](O)CC[C@]4(C)[C@H]3CC[C@@]12C` [compound 13], the IC50 at 5-LO [1] is 2.9 µM. Further, the remaining activity at 10 µM at 5-LO [1] (human neutrophils) is 8.2 ± 2.2%; at 5-LO [2] it was 89.6 ± 8.5%; at cathepsin G, 72.3 ± 3.6%. Further, the inhibition at 10 µM against cathepsin G fell in the range of 27 to 44%.

`CC(C)=CCC[C@H](C(=O)O)[C@@H]1CC[C@]2(C)C3=C(CC[C@@]12C)[C@@]1(C)CC[C@@H](O)C(C)(C)[C@@H]1CC3` [compound 14] gave an IC50 at 5-LO [1] of 1.1 µM. Further, the “fold more potent than AKBA 1 in intact cells” value at 5-LO [1] (human neutrophils, IC50 comparison) was “about 3 fold”. In addition, the remaining activity at 10 µM on 5-LO [1] (human neutrophils) turned out to be 3.1 ± 0.6%; on 5-LO [2] it was 66 ± 15.1%; at cathepsin G it was 73 ± 7.3%. Also, the inhibition at 10 µM is 34% at 5-LO [2] and 27 to 44% against cathepsin G.

Regarding `CC(C)=CCC[C@H](C(=O)O)[C@@H]1CC[C@]2(C)C3=C(CC[C@@]12C)[C@@]1(C)CC[C@H](O)C(C)(C)[C@@H]1CC3` [compound 15], the half-inhibitory concentration (IC50) against 5-LO [1] is 3 µM. Moreover, the remaining activity at 10 µM on 5-LO [1] (human neutrophils) is 5.2 ± 1%. Also, on 5-LO [2], the inhibition at 10 µM was 36% and the remaining activity at 10 µM is 64.1 ± 12.4%. Moreover, on cathepsin G, the “inhibition of cathepsin G” value was “failed to markedly inhibit cathepsin G” and the remaining activity at 10 µM is 80.1 ± 6.2%.

As to `CC(C)=CCC[C@H](C(=O)O)[C@@H]1CC[C@]2(C)C3=C(CC[C@@]12C)[C@@]1(C)CCC(=O)C(C)(C)[C@@H]1CC3` [compound 16], at 5-LO [1], the IC50 is 7.1 µM. Besides, the values for the remaining activity at 10 µM at 5-LO [1] (human neutrophils), on 5-LO [2] and at cathepsin G were 37.8 ± 2.4%, 77.1 ± 8.7% and 53.1 ± 5.5%, respectively. Besides, the inhibition at 10 µM on cathepsin G lay within 27 to 44%.

As for `CC(=O)O[C@@H]1CC[C@]2(C)C3=C(CC[C@H]2C1(C)C)[C@@]1(C)CC[C@@H]([C@H](CCC=C(C)C)C(=O)O)[C@]1(C)CC3` [compound 17], the remaining activity at 10 µM is 75.5 ± 2.1% at 5-LO [1] (human neutrophils), 75.6 ± 3% at 5-LO [2] and 66.7 ± 4.5% on cathepsin G. Moreover, on cathepsin G, the inhibition at 10 µM lay within 27 to 44%.

In the case of `C[C@H]1[C@H](C)CC[C@]2(C)CC[C@]3(C)C(=C[C@@H](O)[C@@H]4[C@@]5(C)CC[C@@H](O)[C@](C)(C(=O)O)[C@@H]5CC[C@]43C)[C@H]12` [compound 18, 11α-Hydroxy-β-boswellic acid], on 5-LO [1], the IC50 was 2.8 µM. In addition, the remaining activity at 10 µM at 5-LO [1] (human neutrophils) turned out to be 18.3 ± 2.7%; on 5-LO [2], 72.8 ± 7.1%; at cathepsin G it was 62.9 ± 6.6%. Further, the inhibition at 10 µM at 5-LO [2] is under 25%.

In the case of `C[C@H]1[C@H](C)CC[C@]2(C)CC[C@]3(C)C(=C[C@H](O)[C@@H]4[C@@]5(C)CC[C@@H](O)[C@](C)(C(=O)O)[C@@H]5CC[C@]43C)[C@H]12` [compound 19, 11β-hydroxy-β-boswellic acid], the remaining activity at 10 µM at 5-LO [1] (human neutrophils) was determined as 58.2 ± 0.9%; at 5-LO [2], 87.2 ± 1.8%; on cathepsin G, 82.7 ± 9%. Further, the inhibition at 10 µM on 5-LO [2] is under 25%.

As to `C[C@H]1[C@H](C)CC[C@]2(C)CC[C@]3(C)C(=CC[C@@H]4[C@@]5(C)CC[C@@H](OC(=O)C(=O)O)[C@](C)(C(=O)O)[C@@H]5CC[C@]43C)[C@H]12` [compound 20, 3-O-Oxaloyl-β-boswellic acid], the remaining activity at 10 µM at 5-LO [1] (human neutrophils) is 77.3 ± 5.7%. Further, on 5-LO [2], the “5-LO Activity [% Control] cell-free” value was “n.i”. Further, on cathepsin G, the IC50 was 4.7 µM and the remaining activity at 10 µM was 38.1 ± 6.4%.

In the case of `C[C@H]1[C@H](C)CC[C@]2(C)CC[C@]3(C)C(=CC(=O)[C@@H]4[C@@]5(C)CC[C@@H](OC(=O)C(=O)O)[C@](C)(C(=O)O)[C@@H]5CC[C@]43C)[C@H]12` [compound 21, 3-O-Oxaloyl-11-keto-β-boswellic acid], on 5-LO [1] (human neutrophils), the remaining activity at 10 µM was 70.3 ± 6.9%. Besides, the “5-LO Activity [% Control] cell-free” value on 5-LO [2] is listed as “n.i”. Besides, on cathepsin G, the “inhibition of cathepsin G” value was “not active” and the “Cat. G Activity [% Control]” value is “n.i”.

Take `C[C@H]1[C@H](C)CC[C@]2(C)CC[C@]3(C)C(=CC[C@@H]4[C@@]5(C)CC[C@@H](OC(=O)CCC(=O)O)[C@](C)(C(=O)O)[C@@H]5CC[C@]43C)[C@H]12` [compound 22, 3-O-Succinoyl-β-boswellic acid]: the remaining activity at 10 µM at 5-LO [1] (human neutrophils) was found to be 60.3 ± 8%; on 5-LO [2] it was 85.9 ± 11.1%; at cathepsin G, 59.4 ± 7.6%.

`C[C@H]1[C@H](C)CC[C@]2(C)CC[C@]3(C)C(=CC(=O)[C@@H]4[C@@]5(C)CC[C@@H](OC(=O)CCC(=O)O)[C@](C)(C(=O)O)[C@@H]5CC[C@]43C)[C@H]12` [compound 23, 3-O-Succinoyl-11-keto-β-boswellic acid]: the remaining activity at 10 µM at 5-LO [1] (human neutrophils) was 80.8 ± 6.8%. In addition, the remaining activity at 10 µM on 5-LO [2] was determined as 75 ± 4.8%. Also, at cathepsin G, the “inhibition of cathepsin G” value is given as “not active” and the “Cat. G Activity [% Control]” value is on record as “n.i”.

For `C[C@H]1[C@H](C)CC[C@]2(C)CC[C@]3(C)C(=CC[C@@H]4[C@@]5(C)CC[C@@H](OC(=O)CCCC(=O)O)[C@](C)(C(=O)O)[C@@H]5CC[C@]43C)[C@H]12` [compound 24, 3-O-Glutaroyl-β-boswellic acid], the remaining activity at 10 µM at 5-LO [1] (human neutrophils) was determined as 65.3 ± 8%. The “5-LO Activity [% Control] cell-free” value on 5-LO [2] was “n.i”. At cathepsin G, the IC50 is 3.6 µM and the remaining activity at 10 µM stood at 24.5 ± 1.7%.
